Values quoted from earlier work, collected in article PMC11387175, “Model informed dose regimen optimizing in development of leritrelvir for the treatment of mild or moderate COVID-19” (Frontiers in Pharmacology, 2024).
Read-outs that look alike come from different tables or passages of the source.

Test system: Delta variant
Set-up: method as in Chen et al., 2023
Settings: ref Chen et al., 2023, cited from earlier work

Q: For `O=C(NC1CCCC1)C(=O)[C@H](C[C@@H]1CCNC1=O)NC(=O)[C@@H]1[C@H]2CCC[C@H]2CN1C(=O)[C@@H](NC(=O)C(F)(F)F)C1CCCCC1` [leritrelvir], which inhibition rate (300 mg/kg) is on record?
A: 42.86%

Q: And the inhibition rate (600 mg/kg)?
A: 100%

Q: And the lung pathology?
A: favorable enhancements

Q: And the “viral titers in the lungs of mice after infection” value?
A: significantly reduced
